Source: PubChem BioAssay AID1259407 (Chemical Carcinogenesis Research Information System (CCRIS), 2018)
Active and inactive are the calls of the source. The rule behind the calls is not given here.

System: CCRIS mutagenicity, Ames/micronucleus/aberration tests
Experiment: CCRIS mutagenicity studies

In the case of c1ccccc1, the mutagenic call (Test System: AMES SALMONELLA TYPHIMURIUM, Strain/Indicator: TA100, Metabolic Activation: RAT, LIVER, S-9, PHENOBARBITAL, Method: PREINCUBATION) is reported as “inactive; negative”, the mutagenic call (Test System: AMES SALMONELLA TYPHIMURIUM, Strain/Indicator: TA100, Metabolic Activation: RAT, LIVER, S-9, PHENOBARBITAL, Method: STANDARD PLATE) is reported as “inactive; negative” and the mutagenic call (Test System: AMES SALMONELLA TYPHIMURIUM, Strain/Indicator: TA100, Metabolic Activation: RAT, LIVER, S-9, PYRAZOLE, Method: STANDARD PLATE) is reported as “inactive; negative”. The mutagenic call (Test System: AMES SALMONELLA TYPHIMURIUM, Strain/Indicator: TA100, Metabolic Activation: S-9, Method: STANDARD PLATE) was “inactive; negative”, the mutagenic call (Test System: AMES SALMONELLA TYPHIMURIUM, Strain/Indicator: TA102, Metabolic Activation: NONE, Method: STANDARD PLATE) was “inactive; negative” and the mutagenic call (Test System: AMES SALMONELLA TYPHIMURIUM, Strain/Indicator: TA102, Metabolic Activation: RAT, LIVER, S-9, ETHANOL, Method: STANDARD PLATE) was “inactive; negative”. For the same compound, the mutagenic call (Test System: AMES SALMONELLA TYPHIMURIUM, Strain/Indicator: TA102, Metabolic Activation: RAT, LIVER, S-9, PYRAZOLE, Method: STANDARD PLATE) was “inactive; negative”, the mutagenic call (Test System: AMES SALMONELLA TYPHIMURIUM, Strain/Indicator: TA102, Metabolic Activation: S-9, Method: STANDARD PLATE) was “inactive; negative” and the mutagenic call (Test System: AMES SALMONELLA TYPHIMURIUM, Strain/Indicator: TA104, Metabolic Activation: RAT, LIVER, S-9, AROCLOR 1254, Method: DESICCATOR) was “inactive; negative”. For the same compound, the mutagenic call (Test System: AMES SALMONELLA TYPHIMURIUM, Strain/Indicator: TA1535, Metabolic Activation: HAMSTER LIVER S-9, AROCLOR 1254 (10 OR 30%), Method: PREINCUBATION) was “inactive; negative”, the mutagenic call (Test System: AMES SALMONELLA TYPHIMURIUM, Strain/Indicator: TA1535, Metabolic Activation: NONE, Method: DESICCATOR) was “inactive; negative” and the mutagenic call (Test System: AMES SALMONELLA TYPHIMURIUM, Strain/Indicator: TA1535, Metabolic Activation: NONE, Method: PREINCUBATION) was “inactive; negative”. The mutagenic call (Test System: AMES SALMONELLA TYPHIMURIUM, Strain/Indicator: TA1535, Metabolic Activation: NONE, Method: STANDARD PLATE) was “inactive; negative”, the mutagenic call (Test System: AMES SALMONELLA TYPHIMURIUM, Strain/Indicator: TA1535, Metabolic Activation: RAT LIVER S-9, AROCLOR 1254 (10 OR 30%), Method: PREINCUBATION) was “inactive; negative” and the mutagenic call (Test System: AMES SALMONELLA TYPHIMURIUM, Strain/Indicator: TA1535, Metabolic Activation: RAT, LIVER, S-9, AROCLOR 1254, Method: DESICCATOR) was “active; positive”. For the same compound, the mutagenic call (Test System: AMES SALMONELLA TYPHIMURIUM, Strain/Indicator: TA1535, Metabolic Activation: RAT, LIVER, S-9, AROCLOR 1254, Method: STANDARD PLATE) was “inactive; negative”, the mutagenic call (Test System: AMES SALMONELLA TYPHIMURIUM, Strain/Indicator: TA1535, Metabolic Activation: RAT, LIVER, S-9, PYRAZOLE, Method: STANDARD PLATE) was “inactive; negative” and the mutagenic call (Test System: AMES SALMONELLA TYPHIMURIUM, Strain/Indicator: TA1537, Metabolic Activation: NONE, Method: STANDARD PLATE) was “inactive; negative”. For the same compound, the mutagenic call (Test System: AMES SALMONELLA TYPHIMURIUM, Strain/Indicator: TA1537, Metabolic Activation: RAT, LIVER, S-9, AROCLOR 1254, Method: STANDARD PLATE) was “inactive; negative”, the mutagenic call (Test System: AMES SALMONELLA TYPHIMURIUM, Strain/Indicator: TA1537, Metabolic Activation: RAT, LIVER, S-9, PYRAZOLE, Method: STANDARD PLATE) was “inactive; negative” and the mutagenic call (Test System: AMES SALMONELLA TYPHIMURIUM, Strain/Indicator: TA1538, Metabolic Activation: NONE, Method: STANDARD PLATE) was “inactive; negative”. The mutagenic call (Test System: AMES SALMONELLA TYPHIMURIUM, Strain/Indicator: TA1538, Metabolic Activation: RAT, LIVER, S-9, AROCLOR 1254, Method: STANDARD PLATE) was “inactive; negative”, the mutagenic call (Test System: AMES SALMONELLA TYPHIMURIUM, Strain/Indicator: TM677/8-AZAGUANINE, Metabolic Activation: NONE, Method: PREINCUBATION) was “inactive; negative” and the mutagenic call (Test System: AMES SALMONELLA TYPHIMURIUM, Strain/Indicator: TM677/8-AZAGUANINE, Metabolic Activation: RAT, LIVER, S-9, PHENOBARBITAL, Method: PREINCUBATION) was “inactive; negative”. The mutagenic call (Test System: AMES SALMONELLA TYPHIMURIUM, Strain/Indicator: TM677, Metabolic Activation: NONE, Method: STANDARD PLATE) was “inactive; negative”, the mutagenic call (Test System: AMES SALMONELLA TYPHIMURIUM, Strain/Indicator: UTH8413, Metabolic Activation: NONE, Method: STANDARD PLATE) was “inactive; negative” and the mutagenic call (Test System: AMES SALMONELLA TYPHIMURIUM, Strain/Indicator: UTH8413, Metabolic Activation: RAT, LIVER, S-9, AROCLOR, Method: STANDARD PLATE) was “inactive; negative”. The mutagenic call (Test System: AMES SALMONELLA TYPHIMURIUM, Strain/Indicator: UTH8414, Metabolic Activation: NONE, Method: STANDARD PLATE) was “inactive; negative”, the mutagenic call (Test System: AMES SALMONELLA TYPHIMURIUM, Strain/Indicator: UTH8414, Metabolic Activation: RAT, LIVER, S-9, AROCLOR, Method: STANDARD PLATE) was “inactive; negative” and the mutagenic call (Test System: CHINESE HAMSTER OVARY, Strain/Indicator: CHO-K1-BH4 (HGPRT), Metabolic Activation: NONE, Method: SUSPENSION/PLATE) was “inactive; negative”. For the same compound, the mutagenic call (Test System: CHINESE HAMSTER OVARY, Strain/Indicator: CHO-K1-BH4 (HGPRT), Metabolic Activation: RAT, LIVER, S-9, AROCLOR, Method: SUSPENSION/PLATE) was “inactive; negative”, the mutagenic call (Test System: CHINESE HAMSTER OVARY, Strain/Indicator: CHO/6-THIOGUANINE, Metabolic Activation: HAMSTER EMBRYO CELL-MEDIATED) was “inactive; negative” and the mutagenic call (Test System: CHINESE HAMSTER OVARY, Strain/Indicator: CHO/6-THIOGUANINE, Metabolic Activation: NONE) was “inactive; negative”. The mutagenic call (Test System: CHINESE HAMSTER OVARY, Strain/Indicator: CHO/OUABAIN, Metabolic Activation: HAMSTER EMBRYO CELL-MEDIATED) was “inactive; negative”, the mutagenic call (Test System: CHINESE HAMSTER OVARY, Strain/Indicator: CHO/OUABAIN, Metabolic Activation: NONE) was “inactive; negative” and the mutagenic call (Test System: CHINESE HAMSTER V-79, Strain/Indicator: V-79 (HGPRT)/6-THIOGUANINE, Metabolic Activation: NONE) was “inactive; negative”. The mutagenic call (Test System: CHINESE HAMSTER V-79, Strain/Indicator: V-79 (HGPRT)/6-THIOGUANINE, Metabolic Activation: RAT, LIVER, S-9, PHENOBARBITAL AND BETA-NAPHTHOFLAVONE) was “inactive; negative”, the mutagenic call (Test System: CHINESE HAMSTER V-79, Strain/Indicator: V-79/6-THIOGUANINE, Metabolic Activation: RAT, LIVER, S-9, PHENOBARBITAL AND 5,6-BENZOFLAVONE, Method: REPLATING) was “inactive; negative” and the mutagenic call (Test System: MOUSE LYMPHOMA, Strain/Indicator: L5178Y (TK+/+)/OUABAIN, Metabolic Activation: RAT LIVER S-9, AROCLOR 1254, Method: SUSPENSION/PLATE) was “active; positive”. For the same compound, the mutagenic call (Test System: MOUSE LYMPHOMA, Strain/Indicator: L5178Y (TK+/TK-), Metabolic Activation: NONE, Method: MICROWELL) was “active; positive”, the mutagenic call (Test System: MOUSE LYMPHOMA, Strain/Indicator: L5178Y (TK+/TK-), Metabolic Activation: NONE, Method: SUSPENSION/PLATE) was “inactive; negative” and the mutagenic call (Test System: MOUSE LYMPHOMA, Strain/Indicator: L5178Y (TK+/TK-), Metabolic Activation: RAT, LIVER, S-9, AROCLOR 1254, Method: SUSPENSION/PLATE) was “active; positive”. For the same compound, the mutagenic call (Test System: MOUSE LYMPHOMA, Strain/Indicator: L5178Y (TK+/TK-), Metabolic Activation: RAT, LIVER, S-9, Method: SUSPENSION/PLATE) was “inactive; negative”, the mutagenic call (Test System: MOUSE LYMPHOMA, Strain/Indicator: L5178Y (TK+/TK-), Metabolic Activation: S-9, Method: MICROWELL) was “active; positive” and the mutagenic call (Test System: MOUSE LYMPHOMA, Strain/Indicator: L5178Y(TK+/-)/TRIFLUOROTHYMIDINE, Metabolic Activation: RAT LIVER s-9, AROCLOR 1254, Method: SUSPENSION/PLATE) was “active; positive”. The mutagenic call (Test System: UDS RAT HEPATOCYTES, Strain/Indicator: THY INCORP, Metabolic Activation: NONE, Method: LIQUID SCINTILLATION COUNTING) was “active; positive” and the mutagenic call (Test System: UDS SHE CELLS, Strain/Indicator: THY INCORP, Metabolic Activation: NONE, Method: LIQUID SCINTILLATION COUNTING) was “inactive; negative”.
